For data set [1], the system named is MCF-10A. Put plainly: Cytotoxicity against human MCF10A cells at IC50 in wound healing assay after 24 hrs by MTT assay. In kind it is cell-based.
Data set [2] has as its system MCF-10A. Put plainly: Cytotoxicity against human MCF10A cells at IC50 in MDA-MB-231 MTT assay after 24 hrs by MTT assay. In kind it is cell-based. (In general: Tetrazolium dyes change colour on reduction, which living cells bring about.)
Data set [3] has as its system MDA-MB-231. Kind of data set: Antiinvasive activity against human MDA-MB-231 cells at 10 to 20 uM after 24 hrs by Cultrex BME assay. In kind it is functional, cell-based.
Data set [4] has as its system MDA-MB-231. Put plainly: Antimigratory activity against human MDA-MB-231 cells after 24 hrs by wound healing assay. The settings on record: MDA-MB-231, 24 h.
In data set [5] the test system is MDA-MB-231. Put plainly: Cytotoxicity against human MDA-MB-231 cells after 24 hrs by MTT assay. The settings on record: MDA-MB-231, 24 h.
In data set [6] the test system is MDA-MB-231. Kind of data set: Antimigratory activity against human MDA-MB-231 cells at 25 uM after 24 hrs by wound healing assay. In kind it is functional. The settings on record: for inhibition at 25 µM: MDA-MB-231, 24 h.
The subject of data set [7] is MDA-MB-231. Put plainly: Antiinvasive activity against human MDA-MB-231 cells assessed as cell invasion at 10 uM after 24 hrs by Cultrex BME assay. Type of data set: functional.
The subject of data set [8] is MDA-MB-231. Put plainly: Antiinvasive activity against human MDA-MB-231 cells assessed as cell invasion at 20 uM after 24 hrs by Cultrex BME assay. Type of data set: functional.
Data set [9] addresses T1, Hepatocyte growth factor receptor (Homo sapiens, UniProt P08581). Conditions: 25 to 100 nM.
Description: Competitive inhibition of c-MET phosphorylation (unknown origin) at 25 to 100 nM after 60 mins by Omnia kinase assay
Data set [10] deals with T1, Hepatocyte growth factor receptor. Put plainly: Competitive inhibition of c-MET phosphorylation (unknown origin) after 60 mins by Omnia kinase assay.
Data set [11] has as its system MDA-MB-231. Kind of data set: Antimigratory activity against human MDA-MB-231 cells at 10 uM after 24 hrs by wound healing assay. In kind it is functional, cell-based.
Data set [12] addresses T1, Hepatocyte growth factor receptor. Kind of data set: Inhibition of c-MET phosphorylation (unknown origin) at 10 uM after 1 hr by Z'-LYTE kinase assay.
Data set [13] relates to MDA-MB-231. Put plainly: Antiinvasive activity against human MDA-MB-231 cells at 20 uM after 24 hrs by Cultrex BME assay. In kind it is functional. The settings on record: MDA-MB-231, 24 h.
In data set [14] the test system is MDA-MB-231. Put plainly: Antimigratory activity against human MDA-MB-231 cells at 50 uM after 24 hrs by wound healing assay. In kind it is functional, cell-based.

The structures appear in SMILES notation. The source made the active and inactive calls. The rule behind the calls is not given here. Where only a bound is given, the exact number is not on record here.

T1 sequence (P08581 whole entry): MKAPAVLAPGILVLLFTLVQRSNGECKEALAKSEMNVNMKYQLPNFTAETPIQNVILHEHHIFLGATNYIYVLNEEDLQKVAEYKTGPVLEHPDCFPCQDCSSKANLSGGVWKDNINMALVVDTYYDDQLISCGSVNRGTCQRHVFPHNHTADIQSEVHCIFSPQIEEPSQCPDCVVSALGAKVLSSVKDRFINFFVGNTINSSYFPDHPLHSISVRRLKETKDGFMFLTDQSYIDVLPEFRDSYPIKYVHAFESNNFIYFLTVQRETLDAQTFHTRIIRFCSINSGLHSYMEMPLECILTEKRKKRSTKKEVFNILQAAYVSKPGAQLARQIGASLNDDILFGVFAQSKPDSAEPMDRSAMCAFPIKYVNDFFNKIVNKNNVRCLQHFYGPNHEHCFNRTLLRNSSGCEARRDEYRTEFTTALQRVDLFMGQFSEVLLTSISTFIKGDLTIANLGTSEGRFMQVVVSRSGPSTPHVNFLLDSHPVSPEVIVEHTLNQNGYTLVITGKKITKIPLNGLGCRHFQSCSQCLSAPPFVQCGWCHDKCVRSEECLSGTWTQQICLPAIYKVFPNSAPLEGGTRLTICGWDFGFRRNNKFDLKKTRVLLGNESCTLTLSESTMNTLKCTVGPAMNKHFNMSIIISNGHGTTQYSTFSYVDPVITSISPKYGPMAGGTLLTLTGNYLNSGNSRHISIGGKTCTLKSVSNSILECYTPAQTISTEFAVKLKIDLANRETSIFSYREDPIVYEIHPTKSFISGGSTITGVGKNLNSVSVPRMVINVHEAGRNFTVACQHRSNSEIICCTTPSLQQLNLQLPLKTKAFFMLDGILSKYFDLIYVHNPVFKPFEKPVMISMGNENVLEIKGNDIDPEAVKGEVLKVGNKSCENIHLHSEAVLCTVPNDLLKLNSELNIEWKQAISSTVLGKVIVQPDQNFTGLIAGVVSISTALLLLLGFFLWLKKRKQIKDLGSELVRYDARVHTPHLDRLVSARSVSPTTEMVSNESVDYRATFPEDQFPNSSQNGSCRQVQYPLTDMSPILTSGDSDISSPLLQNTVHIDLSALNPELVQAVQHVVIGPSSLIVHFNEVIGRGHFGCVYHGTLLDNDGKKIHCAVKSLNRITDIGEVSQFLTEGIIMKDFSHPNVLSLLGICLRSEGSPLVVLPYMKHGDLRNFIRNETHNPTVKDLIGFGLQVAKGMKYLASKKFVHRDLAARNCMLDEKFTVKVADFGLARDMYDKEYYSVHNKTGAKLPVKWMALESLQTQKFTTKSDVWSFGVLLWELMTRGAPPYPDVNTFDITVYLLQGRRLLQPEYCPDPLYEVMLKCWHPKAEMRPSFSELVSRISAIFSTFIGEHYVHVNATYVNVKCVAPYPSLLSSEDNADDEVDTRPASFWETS

Regarding `O=C(NCc1ccccc1)OCCc1ccc(OC(=O)NCc2ccccc2)cc1`, the Activity result with MCF-10A [1] and in the data set on MCF-10A [2] was “Non-toxic” throughout. Further, the inhibition – broadly, how much of the control response was suppressed – with MDA-MB-231 [3] was “inactive”. Further, the IC50 with MDA-MB-231 [4] and in the data set with MDA-MB-231 [5] was > 100 µM each time.

As for `O=C(Cc1ccc(O)c(O)c1)OCCc1ccc(O)cc1`, the Activity result in the data set with MCF-10A [1] and with MCF-10A [2] was “Non-toxic” each time. For the same molecule, in the data set with MDA-MB-231 [3], the inhibition entry is “inactive”. Also, in the data set on MDA-MB-231 [6], the inhibition result is “Active”. Besides, the IC50 – broadly, the concentration that gives 50% inhibition – is 41.6 µM in the data set on MDA-MB-231 [4] and > 100 µM in the data set with MDA-MB-231 [5].

Take `COc1cc(/C=C/C(=O)OCCc2ccc(O)cc2)cc(OC)c1OC`: the Activity result with MCF-10A [1] and in the data set on MCF-10A [2] was “Non-toxic” each time. In the data set on MDA-MB-231 [3], the inhibition entry was “inactive”. Further, the inhibition result with MDA-MB-231 [6] was “Active”. The IC50 in the data set with MDA-MB-231 [4] was 46.7 µM; with MDA-MB-231 [5], > 100 µM.

For `CCn1cc(C(=O)OCCc2ccc(O)cc2)c(=O)c2ccc(C)nc21`, the Activity entry is given as “Non-toxic” in the data set on MCF-10A [1], “Non-toxic” in the data set on MCF-10A [2], 60% in the data set on MDA-MB-231 [7] and 36% in the data set on MDA-MB-231 [8].

For `O=C(NCc1ccccc1)OCCc1ccc(O)cc1`, the Activity result in the data set with MCF-10A [1] and in the data set on MCF-10A [2] was “Non-toxic” throughout. The IC50 in the data set on MDA-MB-231 [4] and with MDA-MB-231 [5] was > 100 µM in each case.

As for `Cc1[nH]c(/C=C2\C(=O)Nc3ccc(S(=O)(=O)N(C)c4cccc(Cl)c4)cc32)c(C)c1C(=O)N1CCN(C)CC1`, the inhibition result in data set [9] is “Active”.

Consider `Cc1ccc(S(=O)(=O)NC(=O)OCCc2ccc(O)cc2)cc1` [4-HYDROXYPHENETHYL TOSYLCARBAMATE], for which the Activity entry in the data set on MCF-10A [1] and with MCF-10A [2] was “Non-toxic” throughout. The inhibition result in the data set with MDA-MB-231 [3] was “inactive”. Besides, the IC50 in the data set with MDA-MB-231 [4] and in the data set on MDA-MB-231 [5] was > 100 µM throughout.

In the case of `C/C=C(/C=O)[C@@H](CC=O)CC(=O)OCCc1ccc(O)cc1` [(-)-OLEOCANTHAL], the Activity result with MCF-10A [1] and with MCF-10A [2] was “Non-toxic” throughout. Moreover, the inhibition entry in the data set on MDA-MB-231 [3] is “inactive”. Moreover, the inhibition entry (in data set [10]; with MDA-MB-231 [11]) was “Active” in each case. For the same molecule, the inhibition in data set [12] came to 93.4%.

On to `C=C[C@@H]1[C@H](O)OC=C(C(=O)OC)[C@H]1CC(=O)OCCc1ccc(O)cc1` [LIGSTROSIDE AGLYCONE], for which the Activity entry in the data set with MCF-10A [1] and in the data set with MCF-10A [2] was “Non-toxic” throughout. Also, the inhibition at 25 µM with MDA-MB-231 [6] was determined as 60%. In addition, the IC50 in the data set on MDA-MB-231 [4] is 13.8 µM; in the data set with MDA-MB-231 [5], 80.4 µM. For the same molecule, the inhibition at 20 µM in the data set with MDA-MB-231 [13] was > 50%.

Regarding `O=C(/C=C/c1ccc(O)c(O)c1)OCCc1ccc(O)cc1` [TYROSOL CAFFEATE], the Activity result with MCF-10A [1] and with MCF-10A [2] was “Non-toxic” in each case. The inhibition entry in the data set with MDA-MB-231 [3] is “inactive”. In addition, the IC50 with MDA-MB-231 [4] and with MDA-MB-231 [5] was > 100 µM in each case. The inhibition at 20 µM in the data set on MDA-MB-231 [13] was > 50%.

`COc1cc(CC(=O)OCCc2ccc(O)cc2)ccc1O` [TYROSOL HOMOVANILLATE]: the Activity result in the data set on MCF-10A [1] and with MCF-10A [2] was “Non-toxic” throughout. The inhibition result in the data set with MDA-MB-231 [3] is “inactive”. Moreover, the IC50 with MDA-MB-231 [4] and in the data set with MDA-MB-231 [5] was > 100 µM in each case.

For the molecule `COc1cc(/C=C/C(=O)OCCc2ccc(O)cc2)cc(OC)c1O` [TYROSOL SINAPATE], the Activity result with MCF-10A [1] and in the data set with MCF-10A [2] was “Non-toxic” throughout. Further, the inhibition result with MDA-MB-231 [3] is “inactive”. The inhibition entry with MDA-MB-231 [6] was “Active”. Moreover, the inhibition at 20 µM in the data set with MDA-MB-231 [13] was > 50%.

As for `COc1cc(C(=O)OCCc2ccc(O)cc2)cc(OC)c1O` [TYROSOL SYRINGATE], the Activity result in the data set with MCF-10A [1] and in the data set on MCF-10A [2] was “Non-toxic” throughout. For the same molecule, the inhibition result with MDA-MB-231 [3] is “inactive”. The molecule also showed an inhibition at 25 µM with MDA-MB-231 [6] of 60%. In addition, the IC50 is 19.4 µM in the data set with MDA-MB-231 [4] and > 100 µM in the data set on MDA-MB-231 [5].

In the case of `OCCc1ccc(O)cc1` [TYROSOL], the Activity entry in the data set with MCF-10A [1] and in the data set on MCF-10A [2] was “Non-toxic” in each case. The IC50 in the data set with MDA-MB-231 [4] and in the data set on MDA-MB-231 [5] was > 100 µM throughout. In the data set with MDA-MB-231 [14], the inhibition result is “inactive”.

The values are drawn from ChEMBL document CHEMBL2346504, “Olive secoiridoids and semisynthetic bioisostere analogues for the control of metastatic breast cancer” (Bioorg Med Chem, 2013).
